Test results published in US8772489B2, “Optically active 2-hydroxy tetrahydrothienopyridine derivatives, preparation method and use in manufacture of medicament thereof” (Jiangsu Vcare PharmaTech Co. Ltd., priority 2010, dated 2014).
Read-outs that look alike come from different tables or passages of the source.

What was measured:
platelet aggregation = assay: animal or person; type: in vivo; conditions: Rattus norvegicus, read-out: Aggregation inhibition (%)
Excerpt: The positive control and the test compounds (prepared in the above examples) were formulated in 0.5% CMC-Na (carboxymethylcellulose sodium) into suspensions for administration to animals.
Animals: male SD rats, weighed about 250 g, and supplied by Shanghai Super-B&K Laboratory Animal Corp. Ltd. Animal certificate No.: 2008001605451, and license No.: SCXK (Hu); SCXK (Hu) 2008-0016.
Instruments: a centrifuge (80-2 bench top low-speed centrifuge), an automatic platelet aggregation tester (STELLEXLG-PAPER-I platelet coagulation/aggregation analyzer), and others.
Methods: the pharmacological activity test of the compounds of the present invention for platelet aggregation was performed following Born's turbidimetric method (Nature, 1962, 194(4832): 927). An agglomeration-promoting substance, adenosine diphosphate (ADP), was added to a platelet rich plasma (PRP), and stirred to allow platelets to aggregate. […] This experiment can be used to evaluate the platelet aggregation effect induced by the test compounds administrated in-vivo or in-vitro.
The PRP was adjusted with a platelet poor plasma (PPP) to maintain the platelet counts at […]. The PRP was taken into a test cup, and incubated at 37° C. for 10 min. Light transmission was adjusted to 0% with PRP and to 100% with PPP for each measurement. By using ADP (with a final concentration of 5 μM) as an inducer, the platelet aggregation percentages were measured through the turbidimetric method using a platelet aggregation tester, and statistically compared by t-test. The platelet aggregation inhibition was calculated by the equation: platelet aggregation inhibition (%)=[1−(aggregation percent in dosed tube/aggregation percent in control tube)]×100%.

[1] = molecular target: human carboxylesterase 1 (hCE1) (Homo sapiens, UniProt P23141); conditions: in vivo, J Pharmacol Exp Ther, 2006, 319: 1467; cited from earlier work
human carboxylesterase 1 (hCE1), sequence (P23141 18-567): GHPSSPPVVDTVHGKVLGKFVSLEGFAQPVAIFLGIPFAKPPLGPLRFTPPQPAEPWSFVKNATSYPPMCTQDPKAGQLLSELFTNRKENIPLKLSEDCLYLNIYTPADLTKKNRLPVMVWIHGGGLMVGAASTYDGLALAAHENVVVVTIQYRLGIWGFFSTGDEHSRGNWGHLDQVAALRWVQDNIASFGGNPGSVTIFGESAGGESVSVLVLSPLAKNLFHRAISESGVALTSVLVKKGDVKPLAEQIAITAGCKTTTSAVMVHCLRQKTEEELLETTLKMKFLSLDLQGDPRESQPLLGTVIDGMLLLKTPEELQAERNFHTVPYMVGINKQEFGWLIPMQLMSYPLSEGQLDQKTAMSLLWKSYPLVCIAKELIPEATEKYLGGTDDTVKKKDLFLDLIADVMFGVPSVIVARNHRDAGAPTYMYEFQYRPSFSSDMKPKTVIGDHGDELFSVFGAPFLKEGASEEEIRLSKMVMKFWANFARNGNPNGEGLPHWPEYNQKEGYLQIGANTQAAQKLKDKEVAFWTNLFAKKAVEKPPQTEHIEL

[2] = male SD rats, oral gavage 3 mg/kg, blood after 2 hrs, ADP 5 μM

## COC(=O)[C@H](c1ccccc1Cl)N1CCc2sc(OC(=O)c3ccccc3)cc2C1 [Compound I-1, (S)-Methyl 2-(2-benzoyloxy-6,7-dihydrothieno[3,2-c]pyridin-5(4H)-yl)-2-(2-chlorophenyl)-acetate]
Platelet aggregation; [2]
  inhibition at 3 mg/kg: 41.1%
other
  melting point: 84 to 86 °C

## COC(=O)[C@H](c1ccccc1Cl)N1CCc2sc(OC(=O)c3cccnc3)cc2C1 [Compound I-6, (S)-methyl 2-(2-nicotinoyloxy-6,7-dihydrothieno[3,2-c]pyridin-5(4H)-yl)-2-(2-chlorophenyl)-acetate]
Platelet aggregation; [2]
  inhibition at 3 mg/kg: 31.3%
other
  melting point: 92 to 94 °C

## CCC(C)(C)C(=O)Oc1cc2c(s1)CCN([C@H](C(=O)OC)c1ccccc1Cl)C2 [Compound I-8, (S)-Methyl 2-(2-(2,2-dimethylbutanoyloxy)-6,7-dihydrothieno[3,2-c]pyridin-5(4H)-yl)-2-(2-chlorophenyl)-acetate]
Platelet aggregation; [2]
  inhibition at 3 mg/kg: 35.7%
other
  melting point: 98 to 100 °C

## COC(=O)[C@H](c1ccccc1Cl)N1CCc2sc(OC(=O)/C=C/c3ccccc3)cc2C1 [Compound I-9, (S)-methyl 2-(2-cinnamoyloxy-6,7-dihydrothieno[3,2-c]pyridin-5(4H)-yl)-2-(2-chlorophenyl)-acetate]
Platelet aggregation; [2]
  inhibition at 3 mg/kg: 30.3%
other
  melting point: 122 to 124 °C

## COC(=O)[C@H](c1ccccc1Cl)N1CCc2sc(OC(=O)c3ccc([N+](=O)[O-])cc3)cc2C1 [Compound I-10, (S)-methyl 2-(2-(4-nitrobenzoyloxy)-6,7-dihydrothieno[3,2-c]pyridin-5(4H)-yl)-2-(2-chlorophenyl)-acetate]
Platelet aggregation; [2]
  inhibition at 3 mg/kg: 36.8%
other
  melting point: 100 to 102 °C

## COC(=O)[C@H](c1ccccc1Cl)N1CCc2sc(OC(=O)COc3ccccc3)cc2C1 [Compound I-13, (S)-Methyl 2-(2-(phenoxyacetoxy)-6,7-dihydrothieno[3,2-c]pyridin-5(4H)-yl)-2-(2-chlorophenyl)-acetate]
Platelet aggregation; [2]
  inhibition at 3 mg/kg: 10.1%
other
  melting point: 104 to 106 °C

## CCOC(=O)Oc1cc2c(s1)CCN([C@H](C(=O)OC)c1ccccc1Cl)C2 [Compound I-14, (S)-Methyl 2-(2-(ethoxycarbonyloxy)-6,7-dihydrothieno[3,2-c]pyridin-5(4H)-yl)-2-(2-chlorophenyl)-acetate]
Platelet aggregation; [2]
  inhibition at 3 mg/kg: 62.9%
other
  melting point: 42 to 44 °C

## COC(=O)[C@H](c1ccccc1Cl)N1CCc2sc(OC(=O)OC(C)C)cc2C1 [Compound I-16, (S)-Methyl 2-(2-(isopropoxycarbonyloxy)-6,7-dihydrothieno[3,2-c]pyridin-5(4H)-yl)-2-(2-chlorophenyl)-acetate]
Platelet aggregation; [2]
  inhibition at 3 mg/kg: 52.7%

## COC(=O)[C@H](c1ccccc1Cl)N1CCc2sc(OC(=O)N(C)C)cc2C1 [Compound I-18, (S)-Methyl 2-(2-(N,N-dimethylcarbamoyloxy)-6,7-dihydrothieno[3,2-c]pyridin-5(4H)-yl)-2-(2-chlorophenyl)-acetate]
Platelet aggregation; po, 2 h
  inhibition at 3 mg/kg: 48.2%
other
  melting point: 96 to 98 °C

## COC(=O)[C@H](c1ccccc1F)N1CCc2sc(OC(C)=O)cc2C1 [Compound I-19, (S)-Methyl 2-(2-acetoxy-6,7-dihydrothieno[3,2-c]pyridin-5 (4H)-yl)-2-(2-fluorophenyl)-acetate]
Platelet aggregation; [2]
  inhibition at 3 mg/kg: 63.5%

## COC(=O)[C@H](c1ccc(Cl)cc1)N1CCc2sc(OC(C)=O)cc2C1 [Compound I-20, (S)-Methyl 2-(2-acetoxy-6,7-dihydrothieno[3,2-c]pyridin-5(4H)-yl)-2-(4-chlorophenyl)-acetate]
Platelet aggregation; [2]
  inhibition at 3 mg/kg: 17.6%

## COC(=O)[C@H](c1ccccc1)N1CCc2sc(OC(C)=O)cc2C1 [Compound I-21, (S)-Methyl 2-(2-acetoxy-6,7-dihydrothieno[3,2-c]pyridin-5 (4H)-yl)-2-phenyl-acetate]
Platelet aggregation; [2]
  inhibition at 3 mg/kg: 9.1%

## COC(=O)[C@H](c1ccccc1Cl)N1CCc2sc(OC(=O)N3CCCC3)cc2C1 [Compound I-22, (S)-Methyl 2-(2-(pyrrolidine-1-carbonyloxy)-6,7-dihydrothieno[3,2-c]pyridin-5(4H)-yl)-2-(2-chlorophenyl)-acetate]
Platelet aggregation; po, 2 h
  inhibition at 3 mg/kg: 20.3%

## COC(=O)[C@@H](c1ccccc1Cl)N1CCc2sc(OC(C)=O)cc2C1 [I-2′]
Platelet aggregation; [2]
  inhibition at 3 mg/kg: 27.1%
Platelet aggregation; male SD rats, oral gavage 10 mg/kg, blood after 2 hrs, ADP 5 μM
  inhibition at 10 mg/kg: 55.3%

## COC(=O)[C@H](c1ccccc1Cl)N1CCc2sccc2C1 [clopidogrel]
[1]
  share of the prototype drug hydrolyzed by hCE1 in the liver into an inactive carboxylic derivative: 85%
